Here are results for eleven compounds from patent US9783543B2, “Aminoimidazopyridazines” (BAYER PHARMA AKTIENGESELLSCHAFT, priority 2012, dated 2017).

One experiment addresses human full-lengt MKNK1 (Homo sapiens (Human), UniProt Q9BUB5, T344D). Put plainly: MKNK1 kinase assay (TR-FRET, 10 μM ATP). It counts as biochemical. From the text: MKNK1-inhibitory activity of compounds of the present invention was quantified employing the MKNK1 TR-FRET assay as described in the following paragraphs.
A recombinant fusion protein of Glutathione-S-Transferase (GST, N-terminally) and human full-lengt MKNK1 (amino acids 1-424 and T344D of accession number BAA 19885.1), expressed in insect cells using baculovirus expression system and purified via glutathione sepharose affinity chromatography, was purchased from Carna Biosciences (product no 02-145) and used as enzyme. As substrate for the kinase reaction the biotinylated peptide biotin-Ahx-[…] (C-terminus in amide form) was used which can be purchased e.g. form the company Biosyntan (Berlin-Buch, Germany).
(§1) For the assay 50 nL of a 100 fold concentrated solution of the test compound in DMSO was pipetted into a black low volume 384 well microtiter plate (Greiner Bio-One, Frickenhausen, Germany), 2 μL of a solution of MKNK1 in aqueous assay buffer [50 mM HEPES pH 7.5, 5 mM magnesium chloride, 1.0 mM dithiothreitol, 0.005% (v/v) Nonidet-P40 (Sigma)] was added and the mixture was incubated for 15 min at 22° C. to allow pre-binding of the test compounds to the enzyme before the start of the kinase reaction. Then the kinase reaction was started by the addition of 3 μL of a solution of adenosine-tri-phosphate (ATP, 16.7 μM=>final conc. in the 5 μL assay volume is 10 μM) and substrate (0.1 μM=>final conc. in the 5 μL assay volume is 0.06 μM) in assay buffer and the resulting mixture was incubated for a reaction time of 45 min at 22° C. The concentration of MKNK1 was adjusted depending of the activity of the enzyme lot and was chosen appropriate to have the assay in the linear range, typical concentrations were in the range of 0.05 μg/ml. The reaction was stopped by the addition of 5 μL of a solution of TR-FRET detection reagents (5 nM streptavidine-XL665 [Cisbio Bioassays, Codolet, France] and 1 nM anti-ribosomal protein S6 (pSer236)-antibody from Invitrogen [#44921G] and 1 nM LANCE EU-W1024 labeled ProteinG [Perkin-Elmer, product no. AD0071]) in an aqueous EDTA-solution (100 mM EDTA, 0.1% (w/v) bovine serum albumin in 50 mM HEPES pH 7.5).
(§2) The resulting mixture was incubated for 1 h at 22° C. to allow the formation of complex between the phosphorylated biotinylated peptide and the detection reagents. Subsequently the amount of phosphorylated substrate was evaluated by measurement of the resonance energy transfer from the Eu-chelate to the streptavidine-XL. Therefore, the fluorescence emissions at 620 nm and 665 nm after excitation at 350 nm were measured in a TR-FRET reader, e.g. a Rubystar (BMG Labtechnologies, Offenburg, Germany) or a Viewlux (Perkin-Elmer). The ratio of the emissions at 665 nm and at 622 nm was taken as the measure for the amount of phosphorylated substrate.

The target of a further experiment is human full-length MKNK1 (Homo sapiens (Human), UniProt Q9BUB5, T344D). The experiment can be described thus: MKNK1 kinase high ATP assay (TR-FRET, 2 mM ATP). It counts as biochemical. As for the experimental part: MKNK1 Kinase High ATP Assay
human full-length MKNK1, sequence (Q9BUB5 other isoform, or with tags, fused parts or gaps T344D): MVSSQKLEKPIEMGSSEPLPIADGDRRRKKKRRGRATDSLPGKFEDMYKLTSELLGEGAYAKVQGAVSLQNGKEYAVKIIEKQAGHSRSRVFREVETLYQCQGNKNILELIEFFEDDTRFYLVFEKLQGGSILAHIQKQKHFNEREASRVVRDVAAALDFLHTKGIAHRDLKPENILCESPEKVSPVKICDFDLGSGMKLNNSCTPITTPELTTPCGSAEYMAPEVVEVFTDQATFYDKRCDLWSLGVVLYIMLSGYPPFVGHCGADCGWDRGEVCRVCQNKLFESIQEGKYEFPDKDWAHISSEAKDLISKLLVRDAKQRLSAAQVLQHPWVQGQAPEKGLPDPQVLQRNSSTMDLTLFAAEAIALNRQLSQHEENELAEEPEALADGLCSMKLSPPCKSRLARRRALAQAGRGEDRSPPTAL
MKNK1-inhibitory activity at high ATP of compounds of the present invention after their preincubation with MKNK1 was quantified employing the TR-FRET-based MKNK1 high ATP assay as described in the following paragraphs.
A recombinant fusion protein of Glutathione-S-Transferase (GST, N-terminally) and human full-length MKNK1 (amino acids 1-424 and T344D of accession number BAA 19885.1), expressed in insect cells using baculovirus expression system and purified via glutathione sepharose affinity chromatography, was purchased from Carna Biosciences (product no 02-145) and used as enzyme. As substrate for the kinase reaction the biotinylated peptide biotin-Ahx-[…] (C-terminus in amide form) was used, which can be purchased e.g. from the company Biosyntan (Berlin-Buch, Germany).
as §1, with “3.3 mM=>final” for “16.7 μM=>final”, “2 mM)” for “10 μM)”, “30” for “45”, “0.003 μg/mL.” for “0.05 μg/ml.”
as §2

[1] abbreviates: read-out: IC50 MKNK1 (10 μM ATP), 15 min preincubation, GST-MKNK1 T344D.
Where [2] appears, read: read-out: IC50 MKNK1 (2 mM ATP), 15 min preincubation, GST-MKNK1 T344D.
[3] abbreviates: 15 min preincubation, GST-MKNK1 T344D.

Read-outs that look alike come from different tables or passages of the source.

human full-lengt MKNK1, sequence (Q9BUB5 other isoform, or with tags, fused parts or gaps T344D): as above

As to `OC[C@H]1C[C@H](Nc2ccc3ncc(-c4cc5ccccc5o4)n3n2)C1` [Example 1, (trans-3-{[3-(1-Benzofuran-2-yl)imidazo[1,2-b]pyridazin-6-yl]amino}cyclobutyl)methanol], the IC50 turned out to be 0.008 µM on human full-lengt MKNK1 (setting [1]) and 0.011 µM on human full-length MKNK1 (setting [2]).
Regarding `O[C@H]1C[C@H](CNc2ccc3ncc(-c4cc5ccccc5o4)n3n2)C1` [Example 2, trans-3-({[3-(1-Benzofuran-2-yl)imidazo[1,2-b]pyridazin-6-yl]amino}methyl)-cyclobutanol], the IC50 at human full-lengt MKNK1 (setting [3]) amounted to 0.009 µM; against human full-length MKNK1 (setting [3]), 0.021 µM.
Turning to `O[C@H]1CCC[C@H]1Nc1ccc2ncc(-c3cc4ccccc4o3)n2n1` [Example 3, (1S,2R)-2-{[3-(1-Benzofuran-2-yl)imidazo[1,2-b]pyridazin-6-yl]amino}cyclopentanol], the IC50 at human full-lengt MKNK1 (setting [1]) is 0.01 µM; at human full-length MKNK1 (setting [2]), 0.03 µM.
Taken in the same sequence, the figures for `O[C@@H]1CCC[C@H]1Nc1ccc2ncc(-c3cc4ccccc4o3)n2n1` [Example 4, (1R,2R)-2-{[3-(1-Benzofuran-2-yl)imidazo[1,2-b]pyridazin-6-yl]amino}cyclopentanol] were 0.014 µM and 0.041 µM.
Consider `O[C@@H]1CCCC[C@@H]1Nc1ccc2ncc(-c3cc4ccccc4o3)n2n1` [Example 5, (1R,2S)-2-{[3-(1-Benzofuran-2-yl)imidazo[1,2-b]pyridazin-6-yl]amino}cyclohexanol], for which the IC50 on human full-lengt MKNK1 (setting [1]) was 0.042 µM; at human full-length MKNK1 (setting [2]), 0.049 µM.
For `O[C@H]1CCC[C@@H]1Nc1ccc2ncc(-c3cc4ccccc4o3)n2n1` [Example 6, (1S,2S)-2-{[3-(1-Benzofuran-2-yl)imidazo[1,2-b]pyridazin-6-yl]amino}cyclopentanol], the IC50 at human full-lengt MKNK1 (setting [1]) is 0.022 µM; at human full-length MKNK1 (setting [2]), 0.052 µM.
On to `O[C@@H]1CCC[C@@H]1Nc1ccc2ncc(-c3cc4ccccc4o3)n2n1` [Example 7, (1R,2S)-2-{[3-(1-Benzofuran-2-yl)imidazo[1,2-b]pyridazin-6-yl]amino}cyclopentanol], for which the results for the IC50 at human full-lengt MKNK1 (setting [1]) and at human full-length MKNK1 (setting [2]) were 0.024 µM and 0.066 µM, respectively.
For the compound `O[C@H]1CCCC[C@@H]1Nc1ccc2ncc(-c3cc4ccccc4o3)n2n1` [Example 8, (1S,2S)-2-{[3-(1-Benzofuran-2-yl)imidazo[1,2-b]pyridazin-6-yl]amino}cyclohexanol], the results for the IC50 at human full-lengt MKNK1 (setting [1]) and at human full-length MKNK1 (setting [2]) were 0.126 µM and 0.094 µM, respectively.
Take `O[C@@H]1CCCC[C@H]1Nc1ccc2ncc(-c3cc4ccccc4o3)n2n1` [Example 9, (1R,2R)-2-{[3-(1-Benzofuran-2-yl)imidazo[1,2-b]pyridazin-6-yl]amino}cyclohexanol]: the figures for the IC50 on human full-lengt MKNK1 (setting [1]) and at human full-length MKNK1 (setting [2]) were 0.318 µM and 0.21 µM, respectively.
On to `O[C@H]1CC[C@H](Nc2ccc3ncc(-c4cc5ccccc5o4)n3n2)CC1` [Example 10, trans-4-{[3-(1-Benzofuran-2-yl)imidazo[1,2-b]pyridazin-6-yl]amino}cyclohexanol], for which the IC50 on human full-lengt MKNK1 (setting [1]) came out at 0.012 µM; at human full-length MKNK1 (setting [2]) it was 0.031 µM.
With `O[C@H]1C[C@H](Nc2ccc3ncc(-c4cc5cnccc5o4)n3n2)C1` [Example 11, trans-3-{[3-(Furo[3,2-c]pyridin-2-yl)imidazo[1,2-b]pyridazin-6-yl]amino}cyclobutanol], the IC50 on human full-lengt MKNK1 (setting [1]) was 0.014 µM; at human full-length MKNK1 (setting [2]), 0.052 µM.
